Test results published in publication PMC9569163 (Journal of molecular biology, 2020).

Experiments:
TfR = conditions: cited from earlier work
[1] = cited from earlier work
human TfR = human TfR (Homo sapiens, UniProt P02786); conditions: SPR, 40 nM analyte, HBS-P+ pH 7.4, 56 RUs captured human TfR
[2] = cited from earlier work; remark: listed apart in the source

human TfR, sequence (P02786 121-760): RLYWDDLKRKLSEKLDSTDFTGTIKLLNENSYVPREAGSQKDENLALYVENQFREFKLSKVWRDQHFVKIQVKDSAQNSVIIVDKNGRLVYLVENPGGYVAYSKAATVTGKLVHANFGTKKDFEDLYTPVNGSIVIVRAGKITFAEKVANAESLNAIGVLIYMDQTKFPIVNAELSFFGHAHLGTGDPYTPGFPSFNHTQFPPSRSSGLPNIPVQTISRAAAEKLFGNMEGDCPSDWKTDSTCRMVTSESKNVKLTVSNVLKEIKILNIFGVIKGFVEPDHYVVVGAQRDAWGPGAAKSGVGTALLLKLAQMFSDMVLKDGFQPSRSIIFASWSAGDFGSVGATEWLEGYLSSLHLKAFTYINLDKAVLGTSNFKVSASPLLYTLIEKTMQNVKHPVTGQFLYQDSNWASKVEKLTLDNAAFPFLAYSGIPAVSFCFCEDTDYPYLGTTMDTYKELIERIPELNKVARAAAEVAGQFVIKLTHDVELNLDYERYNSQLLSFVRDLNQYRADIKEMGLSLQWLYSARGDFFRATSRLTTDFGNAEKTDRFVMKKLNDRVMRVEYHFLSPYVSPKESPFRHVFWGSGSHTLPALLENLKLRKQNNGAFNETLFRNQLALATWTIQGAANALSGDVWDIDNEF

Q: What does the source list for transferrin?
A: endocytosis rate t½ (TfR): 3.5 min; plasma half-life [1]: 40 h

Q: With holo-transferrin as the substance, how does the “interaction with captured TfR” value (human TfR) read?
A: demonstrated an interaction

Q: Which serum degradation half-life [2] does the source give for Angiopep-2 here?
A: ~ 20 minutes
